The conditions of data set [1]: rcm bond, 14-membered ring.
The conditions of data set [2]: rcm bond, Hoveyda-Grubbs 2nd generation.
The conditions of data set [3]: from (1R,2)-1-{[(1R,2R,4R)-2-(N′-tert-Butoxycarbonyl-N-hept-6-enyl-hydrazinocarbonyl)-4-(7-methoxy-2-phenyl-quinolin-4-yloxy)-cyclopentanecarbonyl]-amino}-2-vinyl-cyclopropanecarboxylic acid ethyl ester; rcm bond; 15-membered ring; Hoveyda-Grubbs II; DCM; 7.0 mM.

Like-named read-outs stand apart in the source and are kept apart here.

Consider `CCOC(=O)C12CC1C=CCCCCN(C)C(=O)C1CC(OS(=O)(=O)c3ccc(Br)cc3)CC1C(=O)N2` (centres unmarked), for which the ring closure, isolated yield in data set [1] (from 1-{(4-(4-Bromo-benzensulphonyloxy-2-(hex-5-enyl-methyl-carbamoyl)-cyclopentanecarbonyl-amino}2-vinyl-cyclopropanecarboxylic add ethyl ester)), Hoveyda-Grubbs I, DCM, 4.2 mM) worked out at 60%.
The molecule `CCOC(=O)C12CC1C=CCCCCNC(=O)C1CC(Oc3cc(-c4ccccc4)nc4cc(OC)ccc34)CC1C(=O)N2` (centres unmarked) returned a ring closure, isolated yield in data set [1] (from 1-{[2-Hex-5-enylcarbamoyl-4-(7-methoxy-2-phenyl-quinolin-4-yloxy)-cyclopentanecarbonyl]-amino}-2-vinyl-cycloprpanecarboxylic acid ethyl ester, Hoveyda-Grubbs II, DCM, 5.8 mM) of 32%.
Take `CCOC(=O)[C@@]12C[C@H]1C=CCCCCN(C)C(=O)[C@@H]1C[C@H](Oc3cc(-c4ccccc4)nc4cc(OC)ccc34)C[C@H]1C(=O)N2`: the ring closure, yield of all isomers in data set [2] (from C=CCCCCN(C)C(=O)[C@@H]1C[C@H](Oc2cc(-c3ccccc3)nc3cc(OC)ccc23)C[C@H]1C(=O)N[C@]1(C(=O)OCC)C[C@H]1C=C, DCE, 2.02 mM, 83.0 °C) came to 37%.
On to `CCOC(=O)C12CC1C=CCCCCNC(=O)C1CC(Oc3cc(-c4ccccc4)nc4cc(OC)ccc34)CC1C(=O)N2C` (centres unmarked), for which the ring closure, isolated yield in data set [1] (from 1-{[2-Hex-5-enyl-methyl-carbamoyl)-4-(7-methoxy-2-phenyl-quinolin-4-yloxy)-cyclopentanecarbonyl]-amino-2-vinyl-cyclopropanecarboxylic add ethyl ester, Hoveyda-Grubbs II, dichloroethane, 2.02 mM) was 37%.
For the molecule `CCOC(=O)[C@@]12C[C@H]1/C=C\CCCCCN(NC(=O)OC(C)(C)C)C(=O)[C@@H]1C[C@H](Oc3cc(-c4ccccc4)nc4cc(OC)ccc34)C[C@H]1C(=O)N2`, in data set [2] (from C=CCCCCCN(NC(=O)OC(C)(C)C)C(=O)[C@@H]1C[C@H](Oc2cc(-c3ccccc3)nc3cc(OC)ccc23)C[C@H]1C(=O)N[C@]1(C(=O)OCC)C[C@H]1C=C, DCM, 6.97 mM, 40.0 °C, 16.0 h), the ring closure, yield of all isomers turned out to be 70%. The molecule further returned a ring closure, yield after HPLC in data set [3] of 70%.
Regarding `CN1CCCCC=CC2CC2(C(=O)NS(=O)(=O)C2CC2)NC(=O)C2CC(O)CC2C1=O` (centres unmarked), the ring closure, isolated yield in data set [1] (from 4-Hydroxycyclopentane-1,2-dicarboxylic acid 1-[(1-cyclopropanesulphonylaminocarbonyl-2-vinylcyclopropyl)-amide] 2-(hex-5-enyl-methylamide), Hoveyda-Grubbs II, 1,2-dichloroethane, 5.4 mM, 160.0 °C) is 26%.
In the case of `CCOC(=O)[C@@]12C[C@H]1C=CCCCCNC(=O)[C@@H]1C[C@H](Oc3cc(-c4ccccc4)nc4cc(OC)ccc34)C[C@H]1C(=O)N2`, in data set [2] (from C=CCCCCNC(=O)[C@@H]1C[C@H](Oc2cc(-c3ccccc3)nc3cc(OC)ccc23)C[C@H]1C(=O)N[C@]1(C(=O)OCC)C[C@H]1C=C, DCM, 5.8 mM, 40.0 °C), the ring closure, yield of all isomers came to 32%.
